According to patent EP4417607A1, “HETEROCYCLIC COMPOUND AS SOS1 INHIBITOR AND USES THEREOF” (Nanjing Zaiming Pharmaceutical Co., Ltd., priority 2021, dated 2023):

Legend:
H358 cells = test: H358 cell proliferation inhibition (CellTiter-Glo luminescent cell viability assay); assay type: cell-based; details: 7 days
Outline: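 H358 cells seeded at 3000 cells/well in RPMI1640/10% FBS, treated with compound for 7 days at 37 °C/5% CO2. Viability read by CellTiter-Glo 3D luminescence, normalised to cell-free (100%) and compound-free (0%) controls; IC50 fitted from 8 concentrations by four-parameter curve.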

[1] = system: p-ERK pathway in H358 cells; test: p-ERK pathway inhibition in H358 cells (Advanced phospho-ERK (Thr202/Tyr204) cellular kit, HTRF); assay type: cell-based
Outline: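 Serum-starved H358 cells (50000/well, overnight) treated with compound for 1 h at 37 °C, then lysed; phospho-ERK (Thr202/Tyr204) read by HTRF (665/620 nm ratio). Cell-free wells set 100% inhibition, untreated cells 0%; IC50 fitted from 8 concentrations by four-parameter curve.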

[2] = Pharmacokinetics in mice after single intragastric or intravenous administration; assay type: in vivo; details: female, BALB/c nude, mouse, plasma
Experimental: Healthy adult female BALB/c nude mice were evenly divided into groups of 3 mice per group. 3 mice were administered intragastrically, and 3 mice were administered intravenously. The mice were purchased from Beijing Vital River Laboratory Animal Technology Co., Ltd., animal production license number: SCXK (Zhejiang) 2019-0001.
A certain amount of the compound of the present invention was weighed and dissolved in 5% DMSO + 20% PG + 5% anhydrous ethanol + 10% solutol + 60% water to prepare 5 mg/mL for intragastric administration. A certain amount of the compound of the present invention was weighed and dissolved in 1% DMSO + 4% PG + 1% anhydrous ethanol + 2% solutol + 92% water to prepare 0.5 mg/mL for intravenous injection.
Intragastric administration group: BALB/c nude mice were fasted overnight and then intragastrically administered the compound at a dose of 50 mg/kg and a volume of 10 mL/kg.
Intravenous administration group: BALB/c nude mice were fasted overnight and then intravenously administered the compound at a dose of 3 mg/kg and a volume of 6 mL/kg.
After intragastric administration or intravenous administration, 40 µL of blood was collected from orbits of the mice at 5 min, 15 min, 30 min, 1 h, 2 h, 4 h, 6 h, 8 h, and 24 h after administration, anticoagulated with 5 µL of EDTA-K2, centrifuged at 12000 rpm at 4 °C for 5 min to separate the plasma, and stored at -20 °C.
Determination of plasma concentrations in mice after intragastric administration or intravenous administration of different concentrations of the test compounds: the sample was melted at room temperature and vortexed for 1 min; 10 µL of the sample was quantitatively transferred to a 2-mL 96-well plate; 50 µL of an internal standard solution (a solution of tolbutamide in acetonitrile) and 50 µL of a precipitant (acetonitrile:methanol 7:3) were added, and the plate was shaken (1000 rpm * 3 min); the mixture was centrifuged (4000 rpm * 15 min); 80 µL of the supernatant was transferred to a 2-mL 96-well plate; 80 µL of a diluent (water) was added; the mixture was shaken evenly (1000 rpm * 3 min), and 5 µL of the sample was analyzed. LC/MS/MS conditions: The mobile phase A was 0.1% aqueous formic acid solution. The mobile phase B was 0.1% formic acid in acetonitrile. The column was Waters T3 1.8 µm (2.1 mm * 30 mm). The column temperature was 40 °C.

[3] = Homo sapiens, NCI-H358, 1 h compound incubation
[4] = po, single intragastric administration, 50 mg/kg
[5] = single intravenous administration, 3 mg/kg

| Compound | IC50 (H358 cells; Homo sapiens, NCI-H358, 168 h) | IC50 [1, 3] | other results |
| --- | --- | --- | --- |
| COc1c(=O)n(C2(CF)CC2)cc2c(N[C@H](C)c3cccc(C(F)F)c3F)nc(C)nc12 [Example 1, (R)-4-((1-(3-(difluoromethyl)-2-fluorophenyl)ethyl)amino)-6-(1-(fluoromethyl)cyclopropyl)-8-methoxy-2-methylpyrido[4,3-d]pyrimidine-7(6H)-one] | 19.6 nM | 20.7 nM | AUC(0-t) [2, 4]: 17800 ng·h/mL; Cmax [2, 4]: 9430 ng/mL; Tmax [2, 4]: 24 min; half-life [2, 4]: 60 min; AUC(0-t) [2, 5]: 619 ng·h/mL; C0 [2, 5]: 2960 ng/mL; half-life [2, 5]: 30 min; Vd ([2]; single intravenous administration, 3 mg/kg, read-out: Vss): 3.8 L/kg |
| (R)-4-((1-(3-(difluoromethyl)-2-fluorophenyl)ethyl)amino)-6-(1-(fluoromethyl)cyclopropyl)-8-(2-hydroxyprop-2-yl)-2-methylpyrido[4,3-d]pyrimidine-7(6H)-one [Example 144] |  |  | IC50 (H358 cells): 105 nM; IC50 ([1]; 1 h compound incubation): 40 nM |
| Cc1nc(N[C@H](C)c2cccc(C(F)F)c2F)c2cn(C3(CF)CC3)c(=O)c(NC3COC3)c2n1 [Example 61, (R)-4-((1-(3-(difluoromethyl)-2-fluorophenyl)ethyl)amino)-6-(1-(fluoromethyl)cyclopropyl)-2-methyl-8-(oxetan-3-ylamino)pyrido[4,3-d]pyrimidine-7(6H)-one] | 22.8 nM | 16.4 nM |  |
| Cc1nc(N[C@H](C)c2cccc(C(F)F)c2F)c2cn(C3(CF)CC3)c(=O)c(N3CC4CC(C3)O4)c2n1 [Example 174] | 36.2 nM | 20.4 nM |  |
| Cc1nc(N[C@H](C)c2cccc(C(F)F)c2F)c2cn(C3(CF)CC3)c(=O)c(N3CCN4CCC[C@@H]4C3)c2n1 (stereo in doubt) [Example 97, 4-(((R)-1-(3-(difluoromethyl)-2-fluorophenyl)ethyl)amino)-6-(1-(fluoromethyl)cyclopropyl)-8-((R)-hexahydropyrrolo[1,2-a]pyrazin-2(1H)-yl)-2-methylpyrido[4,3-d]pyrimidine-7(6H)-one] | 11.8 nM | 66.3 nM |  |
| CC(=O)Nc1c(=O)n(C2(CF)CC2)cc2c(N[C@H](C)c3cccc(C(F)F)c3F)nc(C)nc12 [Example 83, (R)-N-(4-((1-(3-(difluoromethyl)-2-fluorophenyl)ethyl)amino)-6-(1-(fluoromethyl)cyclopropyl)-2-methyl-7-oxo-6,7-dihydropyrido[4,3-d]pyrimidine-8-yl)acetamide] | 90.9 nM | 92 nM |  |
| Cc1nc(N[C@H](C)c2cccc(C(F)F)c2F)c2cn(C3(CF)CC3)c(=O)c(N=S(C)(C)=O)c2n1 [Example 103, (R)-4-((1-(3-(difluoromethyl)-2-fluorophenyl)ethyl)amino)-8-((dimethyl(oxo)-λ^6-sulfanylidene)amino)-6-(1-(fluoromethyl)cyclopropyl)-2-methylpyrido[4,3-d]pyrimidine-7(6H)-one] | 130 nM | 82.4 nM |  |
| Cc1nc(N[C@H](C)c2cccc(C(F)F)c2F)c2cn(C3(CF)CC3)c(=O)c(OC(F)F)c2n1 [Example 119, (R)-8-(difluoromethoxy)-4-((1-(3-(difluoromethyl)-2-fluorophenyl)ethyl)amino)-6-(1-(fluoromethyl)cyclopropyl)-2-methylpyrido[4,3-d]pyrimidine-7(6H)-one] | 72.1 nM | 54.6 nM |  |
| Cc1nc(N[C@H](C)c2cccc(C(F)F)c2F)c2cn(C3(CF)CC3)c(=O)c(N3CCN(C4COC4)CC3)c2n1 [Example 95, (R)-4-((1-(3-(difluoromethyl)-2-fluorophenyl)ethyl)amino)-6-(1-(fluoromethyl)cydopropyt)-2-methyt-8-(4-(oxetan-3-yt)piperazin-l-yt)pyrido[4,3-d]pyrimidine-7(6H)-one] | 10.2 nM | 30.8 nM |  |
| Cc1nc(N[C@H](C)c2cccc(C(F)F)c2F)c2cn(N3CCOCC3)c(=O)c(-c3cnc4c(cnn4C)c3)c2n1 [Example 100] | 80.8 nM | 49.8 nM |  |
| Cc1nc(N[C@H](C)c2cccc(C#N)c2C)c2cn(N3CCOCC3)c(=O)c(N3CCOC[C@@H]3C)c2n1 [Example 110, 2-methyl-3-((R)-1-((2-methyl-8-((S)-3-methylmorpholine)-6-morpholine-7-oxo-6,7-dihydropyrido[4,3-d]pyrimidin-4-yl)amino)ethyl)benzonitrile] | 50.4 nM | 73.6 nM |  |
| [2H]C([2H])([2H])Oc1c(=O)n(C2(CF)CC2)cc2c(N[C@H](C)c3cccc(S(F)(F)(F)(F)F)c3)nc(C)nc12 [Example 31, (R)-6-(1-(fluoromethyl)cyclopropyl)-8-(methoxy-d3)-2-methyl-4-((1-(3-(pentafluoro-λ^6-sulfanyl)phenyl)ethyl)amino)pyrido[4,3-d]pyrimidine-7(6H)-one] | 133 nM | 73 nM |  |
| Cc1nc(N[C@H](C)c2cccc(C(F)(F)C(C)(C)C#N)c2)c2cn(C3(CF)CC3)c(=O)cc2n1 [Example 6, (R)-3,3-difluoro-3-(3-(1-((6-(1-(fluoromethyl)cyclopropyl)-2-methyl-7-oxo-6,7-dihydropyrido[4,3-d]pyrimidin-4-yl)amino)ethyl)phenyl)-2,2-dimethylpropanenitrile] | 80 nM | 112 nM |  |
| Cc1nc(N[C@H](C)c2cccc([N+](=O)[O-])c2C)c2cn(C3(CF)CC3)c(=O)cc2n1 [Example 13] | 54.1 nM | 131 nM |  |

Further lines, with some results ahead:

| IC50 (H358 cells; Homo sapiens, NCI-H358, 168 h) | IC50 [1, 3] | Compound | other results |
| --- | --- | --- | --- |
| 36.2 nM | 31 nM | [2H]C1([2H])COC[C@H](C)N1c1c(=O)n(C2(CF)CC2)cc2c(N[C@H](C)c3cccc(C(F)F)c3F)nc(C)nc12 [Example 175] |  |
| 52.7 nM | 75.6 nM | Cc1nc(N[C@H](C)c2cccc(C#N)c2C)c2cn(C3(CF)CC3)c(=O)c(N3CCOCC3(C)C)c2n1 [Example 171, (R)-3-(1-((8-(3,3-dimethylmorpholinyl)-6-(1-(fluoromethyl)cyclopropyl)-2-methyl-7-oxo-6,7-dihydropyrido[4,3-d]pyrimidin-4-yl)amino)ethyl)-2-methylbenzonitrile] |  |
| 96.5 nM | 77.5 nM | COc1ccc(-c2c(=O)n(N3CCOCC3)cc3c(N[C@H](C)c4cccc(C#N)c4C)nc(C)nc23)cn1 [Example 162] |  |
| 12.5 nM | 145 nM | Cc1nc(N[C@H](C)c2cccc(C(F)F)c2F)c2cn(C3(CF)CC3)c(=O)c(N3CCC(N(C)C)CC3)c2n1 [Example 158] |  |
| 68.7 nM | 42.8 nM | COC1(c2c(=O)n(C3(CF)CC3)cc3c(N[C@H](C)c4cccc(C(F)F)c4F)nc(C)nc23)COC1 [Example 150, (R)-4-((1-(3-(difluoromethyl)-2-fluorophenyl)ethyl)amino)-6-(1-(fluoromethyl)cyclopropyl)-8-(3-methoxyoxetan-3-yl)-2-methylpyrido[4,3-d]pyrimidine-7(6H)-one] |  |
| 24.1 nM | 43.7 nM | Cc1nc(N[C@H](C)c2cccc(C(F)F)c2F)c2cn(C3(CF)CC3)c(=O)c(N3CCN(C4CC4)CC3)c2n1 [Example 142, (R)-8-(4-cyclopropylpiperazin-1-yl)-4-((1-(3-(difluoromethyl)-2-fluorophenyl)ethyl)amino)-6-(1-(fluoromethyl)cyclopropyl)-2-methylpyrido[4,3-d]pyrimidine-7(6H)-one] |  |
